Source: patent publication US20090239846A1, “Novel Compounds” (Glaxo Group Limited, priority 2005, published 2009)
Counter-ions that a name gives are not always drawn. Like-named read-outs stand apart in the source and are kept apart here.

What was measured:
[1] = tested on: IL-8 production by human neutrophils; test: TNF-stimulated IL-8 production from human neutrophils; format: cell-based; details: Neutrophil
Recombinant human p38α [2] = molecular target: T1, Recombinant human p38α (Homo sapiens, UniProt Q16539); test: Time-resolved fluorescence resonance energy transfer (TR-FRET) kinase assay (standard or low volume); format: biochemical
T1 construct: GST; made in house
T1 sequence (Q16539 whole entry): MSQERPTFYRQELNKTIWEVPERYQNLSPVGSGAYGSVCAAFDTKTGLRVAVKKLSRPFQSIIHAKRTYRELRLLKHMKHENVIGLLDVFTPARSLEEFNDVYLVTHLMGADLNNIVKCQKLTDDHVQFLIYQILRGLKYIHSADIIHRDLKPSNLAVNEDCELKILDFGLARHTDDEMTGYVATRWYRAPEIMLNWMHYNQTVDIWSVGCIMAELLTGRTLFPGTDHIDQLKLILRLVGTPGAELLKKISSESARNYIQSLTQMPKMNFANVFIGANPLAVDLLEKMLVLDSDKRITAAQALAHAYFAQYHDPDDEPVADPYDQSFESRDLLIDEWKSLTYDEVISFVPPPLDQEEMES
Protocol: […] To activate this protein, 3 μM unactivated p38α was incubated in 200 mM Hepes pH 7.4, 625 mM NaCl, 1 mM DTT with 27 nM active MKK6 (Upstate), 1 mM ATP and 10 mM MgCl2 The activity of the MKK6-activated p38α was assessed using a time-resolved fluorescence resonance energy transfer (TR-FRET) assay. Biotinylated-GST-ATF2 (residues 19-96, 400 nM final), ATP ([…]) and MgCl2 (5 mM final) in assay buffer (40 mM HEPES pH 7.4, 1 mM DTT) were added to wells containing 1 ul of various concentrations of compound or DMSO vehicle (3% final) in NUNC 384 well black plate. The reaction was initiated by the addition of MKK6-activated p38 (100 pM final) to give a total volume of 30 ul. The reaction was incubated for 120 minutes at room temperature, then terminated by the addition of 15 μl of 100 mM EDTA pH 7.4. Detection reagent (15 μl) in buffer (100 mM HEPES pH 7.4, 150 mM NaCl, 0.1% w/v BSA, 1 mM DTT) containing antiphosphothreonine-ATF2-71 polyclonal antibody (Cell Signalling Technology, Beverly Mass., USA) labelled with W-1024 europium chelate (Wallac OY, Turku, Finland), and APC-labelled streptavidin (Prozyme, San Leandro, Calif., USA) was added and the reaction was further incubated for 60 minutes at room temperature. The degree of phosphorylation of GST-ATF2 was measured using a Packard Discovery plate reader (Perkin-Elmer Life Sciences, Pangbourne, UK) as a ratio of specific 665 nm energy transfer signal to reference europium 620 nm signal.
[…] To activate this protein, 3 μM unactivated p38α was incubated in 200 mM Hepes pH7.4, 625 mM NaCl, 1 mM DTT with 27 nM active MKK6 (Upstate), 1 mM ATP and 10 mM MgCl2 The activity of the MKK6-activated p38α was assessed using a time-resolved fluorescence resonance energy transfer (TR-FRET) assay. Biotinylated-GST-ATF2 (residues 19-96, 400 nM final), ATP (125 μM final) and MgCl2 (5 mM final) in assay buffer (40 mM HEPES pH 7.4, 1 mM DTT) were added to wells containing 0.1 μl of various concentrations of compound or DMSO vehicle (1.7% final) in Greiner low volume 384 well black plate. The reaction was initiated by the addition of MKK6-activated p38α (100 pM final) to give a total volume of 6 μl. The reaction was incubated for 120 minutes at room temperature, then terminated by the addition of 3 μl of detection reagent in buffer (100 mM HEPES pH 7.4, 150 mM NaCl, 0.1% w/v BSA, 1 mM DTT, 100 mM EDTA) containing antiphosphothreonine-ATF2-71 polyclonal antibody (Cell Signalling Technology, Beverly Mass., USA) labelled with W-1024 europium chelate (Wallac OY, Turku, Finland), and APC-labelled streptavidin (Prozyme, San Leandro, Calif., USA). The reaction was further incubated for 60 minutes at room temperature. The degree of phosphorylation of GST-ATF2 was measured using a BMG Rubystar plate reader (BMG, UK) as a ratio of specific 665 nm energy transfer signal to reference europium 620 nm signal. It is noted that there are two assay formats shown above for the Time-resolved fluorescence resonance energy transfer kinase assay. The only difference between these two assays is the volume used and the plate type. […] The results described herein may have been performed in either assay format and are not differentiated as to which.

Recombinant human p38α [3] = molecular target: T1, Recombinant human p38α; test: Fluorescence anisotropy kinase binding assay (standard or low volume); details: for active in the assay (pIC50, p38α binding): 12 nM p38α, 5 nM fluorescent ligand; for IC50: bound, read-out: apparent pIC50 (converted)
Procedure, shortened: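 Activated GST-tagged recombinant human p38α (pre-activated with MBP-MKK6 DD) at 12 nM final with 5 nM rhodamine green-labelled pyridinylimidazole tracer in pH 7.5 HEPES/CHAPS/DTT/MgCl2 buffer. Test compound 0.28 nM–16.6 μM or 0.02 nM–25 μM final, 3% or 1.7% DMSO; 30–60 min at room temperature. Fluorescence anisotropy read (ex 485/em 535 nm) for Ki.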

TNFalpha = test: LPS-stimulated cytokine production in human whole blood; format: cell-based; details: LPS-stimulated TNF-alpha, bound, read-out: IC50
Protocol: Assay: Test compound concentrations were prepared at 10× concentrations and LPS prepared at 1 ug/ml (final conc. of 50 ng/ml LPS) and added in 50 uL volumes to 1.5 mL eppendorf tubes. Heparinized human whole blood was obtained from healthy volunteers and was dispensed into eppendorf tubes or multiwell plates containing compounds and LPS in 0.2-0.4 mL volumes and the tubes incubated at 37 C. In some studies, compound was incubated with blood for up to 30 min prior to addition of LPS. Following a 4 hour incubation, the tubes or plates were centrifuged to remove cells and plasma was withdrawn and frozen at −80 C. Cytokine measurement: IL-1beta and/or TNFalpha were quantified using a standardized ELISA, or similar technology. Concentrations of IL-1beta or TNFalpha were determined from standard curves of the appropriate cytokine and IC50 values for test compound (concentration that inhibited 50% of LPS-stimulated cytokine production) were calculated by linear regression analysis.

[4] = tested on: IL-6, IL-8, GM-CSF, RANTES and COX-2 synthesis; details: a number of different cell types; cited from earlier work
[5] = tested on: TGF-β-induced fibronectin and thrombospondin; details: Laping et al., 2002; cited from earlier work
[6] = second end given as 'less than', read-out: pIC50, broad range of data upon multiple runs (converted)
[7] = bound, not more than 50% inhibition at 100 nM, read-out: IC50
[8] = bound, read-out: pIC50 (converted)

Cc1ccc(C(=O)NC2CCC2)cc1-c1nc(N2CCC(N)CC2)nc2c1CNC(=O)N2c1c(F)cccc1F [1(g), 3-[2-(4-Amino-1-piperidinyl)-8-(2,6-difluorophenyl)-7-oxo-5,6,7,8-tetrahydropyrimido[4,5-d]pyrimidin-4-yl]-N-cyclobutyl-4-methylbenzamide]
IC50 ([1]; ends given as 'less than' / 'greater than', read-out: IC50, broad range of data upon multiple runs): 40 to 100 nM
IC50 (Recombinant human p38α [2]; [6]): ≥ 7.94 nM
active in the assay (pIC50, p38α binding) (Recombinant human p38α [3]): active

Cc1cc(C(=O)NC(C)C)ccc1-c1nc(NCCN(C)C)nc2c1CNC(=O)N2c1c(F)cccc1F [104(c), 4-(8-(2,6-difluorophenyl)-2-{[2-(dimethylamino)ethyl]amino}-7-oxo-5,6,7,8-tetrahydropyrimido[4,5-d]pyrimidin-4-yl)-3-methyl-N-(1-methylethyl)benzamide trifluoroacetate]
IC50 [1, 7]: > 100 nM
IC50 (Recombinant human p38α [2]; [6]): ≥ 158 nM
IC50 (Recombinant human p38α [3]): > 15800 nM

Cc1ccc(C(=O)NCc2ccccc2)cc1-c1nc(NCCN(C)C)nc2c1CNC(=O)N2c1c(F)cccc1F [Example 18, 3-(8-(2,6-Difluorophenyl)-2-{[2-(dimethylamino)ethyl]amino}-7-oxo-5,6,7,8-tetrahydropyrimido[4,5-d]pyrimidin-4-yl)-4-methyl-N-(phenylmethyl)benzamide]
IC50 (Recombinant human p38α [2]; [6]): ≥ 7.94 nM
melting point: 148 to 150 °C

Cc1ccc(C(=O)Nc2ccc(C)c(-c3nc(NC4CCNCC4)nc4c3CNC(=O)N4c3c(F)cccc3F)c2)cc1F [Example 27(b), N-{3-[8-(2,6-difluorophenyl)-7-oxo-2-(4-piperidinylamino)-5,6,7,8-tetrahydropyrimido[4,5-d]pyrimidin-4-yl]-4-methylphenyl}-3-fluoro-4-methylbenzamide]
IC50 (Recombinant human p38α [2]; [8]): > 15800 nM
active in the assay (pIC50, p38α binding) (Recombinant human p38α [3]): active
melting point: 218 to 223.5 °C

CC(C)NC(=O)c1ccc(-c2nc(NCCN(C)C)nc3c2CNC(=O)N3c2c(F)cccc2F)cc1 [Example 97, 4-(8-(2,6-difluorophenyl)-2-{[2-(dimethylamino)ethyl]amino}-7-oxo-5,6,7,8-tetrahydropyrimido[4,5-d]pyrimidin-4-yl)-N-(1-methylethyl)benzamide trifluoroacetate]
IC50 (Recombinant human p38α [2]; [6]): ≥ 158 nM
IC50 (Recombinant human p38α [3]): > 15800 nM

CNC(=O)c1ccc(-c2nc(NCCN(C)C)nc3c2CNC(=O)N3c2c(F)cccc2F)cc1 [Example 102, 4-(8-(2,6-difluorophenyl)-2-{[2-(dimethylamino)ethyl]amino}-7-oxo-5,6,7,8-tetrahydropyrimido[4,5-d]pyrimidin-4-yl)-N-methylbenzamide trifluoroacetate]
IC50 (Recombinant human p38α [2]; [6]): ≥ 158 nM
IC50 (Recombinant human p38α [3]): > 15800 nM

CCCNC(=O)c1ccc(-c2nc(NCCN(C)C)nc3c2CNC(=O)N3c2c(F)cccc2F)c(C)c1 [Example 105, 4-(8-(2,6-difluorophenyl)-2-{[2-(dimethylamino)ethyl]amino}-7-oxo-5,6,7,8-tetrahydropyrimido[4,5-d]pyrimidin-4-yl)-3-methyl-N-propylbenzamide trifluoroacetate]
IC50 [1, 7]: > 100 nM
IC50 (Recombinant human p38α [2]; [8]): > 1580 nM
IC50 (Recombinant human p38α [3]): > 15800 nM

Cc1cc(C(=O)Nc2ccccc2)ccc1-c1nc(NCCN(C)C)nc2c1CNC(=O)N2c1c(F)cccc1F [Example 106, 4-(8-(2,6-difluorophenyl)-2-{[2-(dimethylamino)ethyl]amino}-7-oxo-5,6,7,8-tetrahydropyrimido[4,5-l]pyrimidin-4-yl)-3-methyl-N-phenylbenzamide trifluoroacetate]
IC50 [1, 7]: > 100 nM
IC50 (Recombinant human p38α [2]; [6]): ≥ 158 nM
IC50 (Recombinant human p38α [3]): > 15800 nM

Cc1cc(C(=O)Nc2ccc(F)cc2)ccc1-c1nc(NCCN(C)C)nc2c1CNC(=O)N2c1c(F)cccc1F [Example 107, 4-(8-(2,6-difluorophenyl)-2-{[2-(dimethylamino)ethyl]amino}-7-oxo-5,6,7,8-tetrahydropyrimido[4,5-d]pyrimidin-4-yl)-N-(4-fluorophenyl)-3-methylbenzamide trifluoroacetate]
IC50 [1, 7]: > 100 nM
IC50 (Recombinant human p38α [2]; [8]): > 1580 nM
IC50 (Recombinant human p38α [3]): > 15800 nM

Cc1cc(C(=O)N(C)C)ccc1-c1nc(NCCN(C)C)nc2c1CNC(=O)N2c1c(F)cccc1F [Example 108, 4-(8-(2,6-difluorophenyl)-2-{[2-(dimethylamino)ethyl]amino}-7-oxo-5,6,7,8-tetrahydropyrimido[4,5-d]pyrimidin-4-yl)-N,N,3-trimethylbenzamide trifluoroacetate]
IC50 [1, 7]: > 100 nM
IC50 (Recombinant human p38α [2]; [6]): ≥ 158 nM
IC50 (Recombinant human p38α [3]): > 15800 nM

Cc1cc(C(N)=O)ccc1-c1nc(NCCN(C)C)nc2c1CNC(=O)N2c1c(F)cccc1F [Example 110, 4-(8-(2,6-difluorophenyl)-2-{[2-(dimethylamino)ethyl]amino}-7-oxo-5,6,7,8-tetrahydropyrimido[4,5-d]pyrimidin-4-yl)-3-methylbenzamide trifluoroacetate]
IC50 [1, 7]: > 100 nM
IC50 (Recombinant human p38α [2]; [8]): > 1580 nM
IC50 (Recombinant human p38α [3]): > 15800 nM

Cc1ccc(C(=O)O)cc1-c1nc(NCCN(C)C)nc2c1CNC(=O)N2c1c(F)cccc1F [Example 117, 3-(8-(2,6-difluorophenyl)-2-{[2-(dimethylamino)ethyl]amino}-7-oxo-5,6,7,8-tetrahydropyrimido[4,5-d]pyrimidin-4-yl)-4-methylbenzoic acid]
IC50 (Recombinant human p38α [2]; [6]): ≥ 158 nM
IC50 (TNFalpha): > 1000 nM
active in the assay (pIC50, p38α binding) (Recombinant human p38α [3]): active

C[S+]([O-])c1ccc(-c2nc(-c3ccncc3)c(-c3ccc(F)cc3)[nH]2)cc1 (stereo not drawn) [SB-203580]
decreasing the synthesis of pro-inflammatory proteins including IL-6, IL-8, GM-CSF, RANTES and COX-2 [4]: effective

COc1nccc(-c2c(-c3ccc(F)cc3)ncn2C2CCNCC2)n1 [SB-242235]
effect on TGF-β-induced increases in fibronectin and thrombospondin [5]: inhibited

Fc1ccc(-c2nc3n(c2-c2ccncc2)CCS3)cc1 [SK&F 86002]
decreasing the synthesis of pro-inflammatory proteins including IL-6, IL-8, GM-CSF, RANTES and COX-2 [4]: effective
